From patent US11076595B2, “1-(n,n-disubstituted carbamoyl) 4-(substituted sulfonyl)triazolin-5-one derivative, 4-(n,n-disubstituted carbamoyl) 1-(substituted sulfonyl)triazolin-5-one derivative, and herbicide containing said derivative as active ingredient” (HOKKO CHEMICAL INDUSTRY CO., LTD., priority 2017, dated 2021)

Assays:
Format in all cases: in vivo
Lindernia pyxidaria [1] = assay: Test Example 12: herbicidal effect test by treatment during growing period in paddy field; details: 120 g/10a; treatment seven days after sowing in flooded paddy pot; assessed 14 days after treatment
Summary of the method: (§1)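 Puddled, fertilized paddy soil in Wagner pots, sown with 30 seeds per species at 0–1 cm and flooded to ~3 cm in a glass greenhouse. Emulsifiable concentrate dripped into water 7 days after sowing at 120 g a.i. per 10 are. Suppression % from dry weight vs untreated, 14 days post-treatment, two replicates.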

Monochoria vaginalis [2] = assay: as above; details: 120 g/10a; treatment seven days after sowing in flooded paddy pot; assessed 14 days after treatment
Summary of the method: as §1

Echinochloa crus-galli [3] = assay: as above; details: 120 g/10a; treatment seven days after sowing in flooded paddy pot; assessed 14 days after treatment
Summary of the method: as §1

Scirpus juncoides [4] = assay: as above; details: 120 g/10a; treatment seven days after sowing in flooded paddy pot; assessed 14 days after treatment
Summary of the method: as §1

Lindernia pyxidaria [5] = assay: Test Example 11: herbicidal effect test by soil treatment in paddy field; details: 120 g/10a active ingredient, 14 days after treatment
Summary of the method: (§2)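 Puddled paddy soil with N:P:K 17:17:17 fertilizer in Wagner pots; 30 seeds per species sown at 0–1 cm, flooded to about 3 cm, kept in a glass greenhouse. Water-diluted emulsifiable concentrate dripped in immediately after sowing at 120 g a.i. per 10 are. Suppression from dry weight versus untreated at 14 days.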

Monochoria vaginalis [6] = assay: as above; details: 120 g/10a active ingredient, 14 days after treatment
Summary of the method: as §2

Echinochloa crus-galli [7] = assay: as above; details: 120 g/10a active ingredient, 14 days after treatment
Summary of the method: as §2

Scirpus juncoides [8] = assay: as above; details: 120 g/10a active ingredient, 14 days after treatment
Summary of the method: as §2

Amaranthus viridis = assay: Test Example 14: herbicidal effect test by foliage treatment in upland field; details: 7 days after sowing, 120 g/10a, 14 days after treatment
Method: (§3) This test was performed with two replications per one formulation concentration plot, and 14 days after the formulation treatments, the weed suppression rate (%) was determined according to the following equation (Math. 2). Weed suppression rate (%)=(1−average dry weight (g) of plants in treated plots/average dry weight (g) of plants in untreated plots)×100 [Math. 2]
(§4) A pot having a size of 36 cm^2 was filled with field soil (alluvial soil) and after uniformly mixing the soil of the surface layer of 1 cm with 20 grains of each weed seed of crabgrass, Echinochloa crus-galli, Chenopodium album and Amaranthus viridis, the surface layer was pressed lightly. Seven Days after the sowing, an emulsifiable concentrate prepared according to Formulation Example 15 by using the compound shown in Table 12 below was diluted with water, and the water-diluted formulation was sprayed on the soil surface at a ratio of 100 liter per 10 are. The application rate of the active ingredient, by conversion, corresponded to 120 g per 10 are. Fourteen Days after the formulation treatment, the herbicidal effect was evaluated by the same criteria as in Test Example 11.

Echinochloa crus-galli [9] = assay: as above; details: 7 days after sowing, 120 g/10a, 14 days after treatment
Method: as §3, §4

crabgrass = assay: as above; details: 7 days after sowing, 120 g/10a, 14 days after treatment
Method: as §4

Chenopodium album = assay: as above; details: 7 days after sowing, 120 g/10a, 14 days after treatment
Method: as §4

Row | SMILES | Weed suppression rate (%) Lindemia pyxidaria (Lindernia pyxidaria [1]) [%] | Weed suppression rate (%) Monochoria vaginalis (Monochoria vaginalis [2]) [%] | Weed suppression rate (%) Echinochloa crus-galli (Echinochloa crus-galli [3]) [%] | Weed suppression rate (%) Scirpus juncoides (Scirpus juncoides [4]) [%] | Weed suppression rate (%) Lindemia pyxidaria (Lindernia pyxidaria [5]) [%] | Weed suppression rate (%) Monochoria vaginalis (Monochoria vaginalis [6]) [%] | Weed suppression rate (%) Echinochloa crus-galli (Echinochloa crus-galli [7]) [%] | Weed suppression rate (%) Scirpus juncoides (Scirpus juncoides [8]) [%] | herbicidal effect, Amaranthus viridis (Amaranthus viridis) [%] | herbicidal effect, Echinochloa crus-galli (Echinochloa crus-galli [9]) [%] | herbicidal effect, Crabgrass (crabgrass) [%] | herbicidal effect, Chenopodium album (Chenopodium album) [%]
1 | CC(C)N(C(=O)n1cnn(S(C)(=O)=O)c1=O)c1c(F)c(F)cc(F)c1F [Compound 11-17] | 70 | 100 | 100 | 100 | 90 | 80 | 100 | 100 | 100 | 70 | 60 | 30
2 | CC(C)N(C(=O)n1cnn(S(=O)(=O)C(C)C)c1=O)c1ccccc1F [Compound 11-49] | 90 | 90 | 100 | 90 | 80 | 80 | 90 | 90 | 90 | 80 | 90 | 80
3 | CC(C)N(C(=O)n1cnn(S(=O)(=O)C2CCCCC2)c1=O)c1ccc(C(F)(F)F)cc1F [Compound 11-311] |  |  |  |  |  |  |  |  | 60 | 90 | 100 | 30
4 | CC(C)N(C(=O)n1cnn(S(=O)(=O)N(C)C)c1=O)c1ccc(Cl)cc1Br [Compound 11-1076] | 60 | 30 | 90 | 60 | 60 | 60 | 90 | 60 |  |  |  | 
5 | Cc1cc(Cl)ccc1N(C(=O)n1cnn(S(=O)(=O)N(C)C)c1=O)C(C)C [Compound 11-1079] | 80 | 80 | 90 | 90 | 80 | 80 | 90 | 90 |  |  |  | 
6 | CC(C)N(C(=O)n1cnn(S(=O)(=O)N(C)C)c1=O)c1ccc(C(F)(F)F)cc1Cl [Compound 11-1084] | 80 | 80 | 90 | 90 | 80 | 80 | 90 | 90 |  |  |  | 
7 | CC(C)N(Cc1ccc(F)cc1F)C(=O)n1cnn(S(=O)(=O)N(C)C)c1=O [Compound 11-1088] | 80 | 80 | 90 | 90 | 80 | 80 | 90 | 90 |  |  |  | 
8 | CCN(CC)S(=O)(=O)n1ncn(C(=O)N(c2ccc(F)cc2F)C(C)C)c1=O [Compound 11-1099] |  |  |  |  |  |  |  |  | 90 | 80 | 90 | 80
9 | CN(C(=O)n1cnn(S(C)(=O)=O)c1=O)c1ccc(F)cc1F [Compound 11-1125] | 70 | 60 | 90 | 30 | 60 | 60 | 90 | 60 |  |  |  | 
